Experimental data published in US10189859B2, “Derivatives of 6-(2,3-dichlorophenyl)-1,2,4-triazin-5-amine” (Nektar Therapeutics, priority 2013, dated 2019).
“And” between values parts separate entries of the source, which are not always exact repeats. Equal entries are not always repeated. Structures can show the parent of a compound that is named as a salt. Where two headings read alike, the source gives them in different places.

Assays:
[1] = target: Nav1.7 sodium channels (human SCN9A gene) (Homo sapiens (Human), UniProt Q15858); assay: Automated patch clamp (IonWorks Barracuda) of Nav1.7 stably expressed in CHO cells; format: cell-based
Method: The potencies of the compounds provided herein to block specific Na+ channels was measured using automated patch clamp electrophysiologically of Nav1.7 sodium channels (human SCN9A gene) stably expressed in CHO cells using the IonWorks™ Barracuda system. Currents were measured from the whole cell patch configuration. From a holding potential of −90 mV, membranes were subjected to a 200 ms pre-pulse to −120 mV, then pulsed to 0 mV to measure blockade of the tonic (resting) state. Inactivated state block was elicited by repolarization to −100 mV (20 ms pulse duration), followed by depolarization to 0 mV (20 ms pulse duration). Peak inward Na+ currents were measured in the presence of vehicle or various concentrations of the test compound to determine the percent block of current. Concentration-response relationships were used to calculate IC50 values for the illustrative compounds.

AFP model = assay: AFP animal model; format: in vivo
Description: The efficacy of the compounds when evaluated in additional well-known animal models, AFP, RR, and hyperalgesia, was also explored.

[2] = Pharmacokinetics after intravenous or oral dosing, plasma LC/MS/MS; format: in vivo; conditions: fasted male Sprague Dawley rats
Method: Fasted, male Sprague Dawley rats were dosed intravenously or orally. Blood samples were collected at pre-determined time points and plasma was separated. Test article concentrations were determined in plasma by a LC/MS/MS method. Non compartmental analysis was performed to estimate the area under the plasma concentration vs. time curve (AUC). Clearance parameters (CL), bioavailabilities (F) and half-lives were calculated.

[3] = inactivated state block, CHO cells, read-out: Inactivated state IC50
[4] = tonic (resting) state block, CHO cells, read-out: Tonic state IC50
[5] = AFP, Ph 2, timepoint 0.5 h, minimum effective dose
[6] = read-out: Inactivated state IC50

Chain of Nav1.7 sodium channels (human SCN9A gene) (Q15858 whole entry): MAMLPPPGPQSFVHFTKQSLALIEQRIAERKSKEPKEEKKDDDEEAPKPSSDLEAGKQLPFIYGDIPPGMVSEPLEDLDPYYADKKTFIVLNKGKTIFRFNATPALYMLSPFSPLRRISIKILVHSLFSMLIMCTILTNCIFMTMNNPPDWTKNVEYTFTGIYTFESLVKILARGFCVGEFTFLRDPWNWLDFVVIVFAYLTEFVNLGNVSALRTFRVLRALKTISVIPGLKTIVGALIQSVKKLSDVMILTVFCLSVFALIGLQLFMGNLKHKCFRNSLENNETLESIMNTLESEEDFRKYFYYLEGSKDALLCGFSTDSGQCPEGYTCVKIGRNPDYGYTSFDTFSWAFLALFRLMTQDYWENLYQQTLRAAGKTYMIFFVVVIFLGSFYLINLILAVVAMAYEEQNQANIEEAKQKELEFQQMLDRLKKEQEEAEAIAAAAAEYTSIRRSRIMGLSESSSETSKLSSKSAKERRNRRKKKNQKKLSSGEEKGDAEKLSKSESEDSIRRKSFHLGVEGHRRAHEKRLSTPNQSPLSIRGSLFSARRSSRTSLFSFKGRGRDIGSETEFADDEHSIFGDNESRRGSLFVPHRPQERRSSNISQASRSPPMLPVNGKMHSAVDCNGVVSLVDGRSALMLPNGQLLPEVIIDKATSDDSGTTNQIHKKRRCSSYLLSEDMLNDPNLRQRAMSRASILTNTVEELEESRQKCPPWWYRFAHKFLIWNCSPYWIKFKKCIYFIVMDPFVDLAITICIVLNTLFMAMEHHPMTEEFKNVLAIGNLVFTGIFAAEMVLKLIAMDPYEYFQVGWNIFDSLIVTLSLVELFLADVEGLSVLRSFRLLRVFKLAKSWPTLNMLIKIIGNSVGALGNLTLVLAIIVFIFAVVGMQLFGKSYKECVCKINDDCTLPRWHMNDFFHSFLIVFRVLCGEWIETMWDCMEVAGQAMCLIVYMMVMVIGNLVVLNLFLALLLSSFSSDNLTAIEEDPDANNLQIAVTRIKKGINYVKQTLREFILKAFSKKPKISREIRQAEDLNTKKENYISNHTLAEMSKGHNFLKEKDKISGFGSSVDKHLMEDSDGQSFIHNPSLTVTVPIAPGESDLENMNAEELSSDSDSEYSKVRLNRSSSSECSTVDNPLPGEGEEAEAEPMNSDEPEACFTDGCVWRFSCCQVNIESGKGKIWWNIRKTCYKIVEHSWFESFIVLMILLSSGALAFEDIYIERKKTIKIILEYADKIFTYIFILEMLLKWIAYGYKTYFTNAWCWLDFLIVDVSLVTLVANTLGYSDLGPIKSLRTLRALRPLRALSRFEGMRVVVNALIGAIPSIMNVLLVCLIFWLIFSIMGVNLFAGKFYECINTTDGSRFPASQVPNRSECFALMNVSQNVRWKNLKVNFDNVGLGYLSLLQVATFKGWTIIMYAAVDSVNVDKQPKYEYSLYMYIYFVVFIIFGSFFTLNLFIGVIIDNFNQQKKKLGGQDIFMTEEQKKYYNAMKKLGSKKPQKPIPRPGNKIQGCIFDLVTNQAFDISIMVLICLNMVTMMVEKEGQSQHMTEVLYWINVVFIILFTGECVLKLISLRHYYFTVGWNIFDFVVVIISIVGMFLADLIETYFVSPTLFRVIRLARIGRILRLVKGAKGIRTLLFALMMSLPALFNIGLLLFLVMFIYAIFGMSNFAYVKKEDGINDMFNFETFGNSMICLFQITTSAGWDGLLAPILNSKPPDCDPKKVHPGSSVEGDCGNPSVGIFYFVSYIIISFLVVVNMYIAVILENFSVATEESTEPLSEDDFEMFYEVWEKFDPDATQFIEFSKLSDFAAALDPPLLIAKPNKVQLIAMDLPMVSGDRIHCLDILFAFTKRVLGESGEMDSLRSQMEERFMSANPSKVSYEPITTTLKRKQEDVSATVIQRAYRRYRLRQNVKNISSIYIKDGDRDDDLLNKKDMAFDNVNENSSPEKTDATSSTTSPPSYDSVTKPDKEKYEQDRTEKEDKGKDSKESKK

Row | Structure (SMILES) | IC50 [1, 3] | IC50 [1, 4] | exposure after oral dosing (qualitative ranking) [2] | further results
1 | CC(C)(CO)Nc1nnc(-c2cccc(Cl)c2Cl)c(N)n1 [Compound 1, 2-((5-amino-6-(2,3-dichlorophenyl)-1,2,4-triazin-3-yl)amino)-2-methylpropan-1-ol] | 60.1 µM and < 50 µM | > 200 µM and 197 µM |  | MED (mg/kg) (AFP model; [5]): 450 (Ph 2) mg/kg; ED50 (AFP model; AFP, Ph 2, timepoint 0.5 h, read-out: ED50): 589 mg/kg
2 | CCOC[C@H](O)CN1CCN(c2nnc(-c3cccc(Cl)c3Cl)c(N)n2)CC1 [Compound 55, (R)-1-(4-(5-Amino-6-(2,3-dichlorophenyl)-1,2,4-triazin-3-yl)piperazin-1-yl)-3-ethoxypropan-2-ol] | 62.3 µM | > 200 µM | best exposure after oral dosing | 
3 | CC(C)OC[C@H](O)CN1CCN(c2nnc(-c3cccc(Cl)c3Cl)c(N)n2)CC1 [Compound 73, (R)-1-(4-(5-Amino-6-(2,3-dichlorophenyl)-1,2,4-triazin-3-yl)piperazin-1-yl)-3-isopropoxypropan-2-ol] | < 50 µM | 179 µM | best exposure after oral dosing | 
4 | Nc1nc(N2CCNCC2)nnc1-c1cccc(Cl)c1Cl [Compound 79, 6-(2,3-dichlorophenyl)-3-(piperazin-1-yl)-1,2,4-triazin-5-amine] | 95.3 µM | > 200 µM | best exposure after oral dosing | 
5 | CC(CO)N1CCN(c2nnc(-c3cccc(Cl)c3Cl)c(N)n2)CC1 (centres unmarked) [Compound 89, 2-(4-(5-amino-6-(2,3-dichlorophenyl)-1,2,4-triazin-3-yl)piperazin-1-yl)propan-1-ol] | 66.6 µM | > 200 µM | best exposure after oral dosing | 
6 | CC(C)(CO)N1CCN(c2nnc(-c3cccc(Cl)c3Cl)c(N)n2)CC1 [Compound 90, 2-(4-(5-amino-6-(2,3-dichlorophenyl)-1,2,4-triazin-3-yl)piperazin-1-yl)-2-methylpropan-1-ol] |  |  | best exposure after oral dosing | IC50 [1, 6]: 56.2 µM; IC50 ([1]; read-out: Tonic state IC50): 183 µM
7 | Nc1nc(N2CCN(CC(O)CO)CC2)nnc1-c1cccc(Cl)c1Cl (centres unmarked) [Compound 92, 3-(4-(5-amino-6-(2,3-dichlorophenyl)-1,2,4-triazin-3-yl)piperazin-1-yl)propane-1,2-diol] | > 300 µM | > 200 µM | best exposure after oral dosing | 
8 | Cl.Cl.Nc1nc(N2CCN(C[C@H](O)COCC(F)(F)F)CC2)nnc1-c1cccc(Cl)c1Cl [Compound 95, (S)-1-(4-(5-amino-6-(2,3-dichlorophenyl)-1,2,4-triazin-3-yl)-piperazin-1-yl)-3-(2,2,2-trifluoroethoxy)-propan-2-ol-2HCl] |  |  | best exposure after oral dosing | pharmacokinetics (qualitative ranking of the compounds tested) [2]: most favorable pharmacokinetics; MED (mg/kg) (AFP model; AFP, Ph 1, timepoint 0.5 h, 500 mg/kg as 2 doses @ 250 mg/kg): 500 (Ph 1) mg/kg
9 | COC[C@H](O)CN1CCN(c2nnc(-c3cccc(Cl)c3Cl)c(N)n2)CC1 [Compound 96, (R)-1-(4-(5-amino-6-(2,3-dichlorophenyl)-1,2,4-triazin-3-yl)piperazin-1-yl)-3-methoxypropan-2-ol] |  |  | best exposure after oral dosing | IC50 [1, 6]: < 50 µM; IC50 ([1]; read-out: Tonic state IC50): > 200 µM; pharmacokinetics (qualitative ranking of the compounds tested) [2]: most favorable pharmacokinetics
10 | COC[C@@H](O)CN1CCN(c2nnc(-c3cccc(Cl)c3Cl)c(N)n2)CC1 [Compound 98, (S)-1-(4-(5-amino-6-(2,3-dichlorophenyl)-1,2,4-triazin-3-yl)piperazin-1-yl)-3-methoxypropan-2-ol] |  |  | best exposure after oral dosing | IC50 [1, 6]: 57.5 µM and < 50 µM; IC50 ([1]; read-out: Tonic state IC50): > 200 µM
11 | C[C@@H]1CN(c2nnc(-c3cccc(Cl)c3Cl)c(N)n2)C[C@H](C)N1 [Compound 118, 3-N-(3′,5′-dimethylpiperazin-1-yl) lamotrigine] |  |  | best exposure after oral dosing | 
12 | C[C@@H]1CN(c2nnc(-c3cc(F)cc(Cl)c3Cl)c(N)n2)C[C@H](C)N1 [Compound 119, 3-N-(3′,5′-dimethylpiperazin-1-yl) 5′-fluoro lamotrigine] |  |  | best exposure after oral dosing | 
13 | Nc1nc(N2CCN(C3CCOCC3)CC2)nnc1-c1cccc(Cl)c1Cl [Compound 120, 3-N-(4-(tetrahydro-2H-pyran-4-yl)piperazin-1-yl) lamotrigine di HCl] |  |  | best exposure after oral dosing | pharmacokinetics (qualitative ranking of the compounds tested) [2]: most favorable pharmacokinetics
14 | Nc1nc(N2CC(N)C2)nnc1-c1cccc(Cl)c1Cl [Compound 126, 5-amino-3-N-(3-aminoazetidinyl) lamotrigine diHCl salt] |  |  | best exposure after oral dosing | 
15 | Nc1nc(N2CCN3C(=O)OC[C@H]3C2)nnc1-c1cccc(Cl)c1Cl [Compound 127, (R)-7-(5-amino-6-(2,3-dichlorophenyl)-1,2,4-triazin-3-yl)tetrahydro-1H-oxazolo[3,4-a]pyrazin-3(5H)-one] |  |  | best exposure after oral dosing | IC50 [1, 6]: > 300 µM; IC50 ([1]; read-out: Tonic state IC50): > 200 µM; pharmacokinetics (qualitative ranking of the compounds tested) [2]: most favorable pharmacokinetics
16 | Nc1nc(N2CCN3C(=O)OC[C@@H]3C2)nnc1-c1cccc(Cl)c1Cl [Compound 128, (S)-7-(5-amino-6-(2,3-dichlorophenyl)-1,2,4-triazin-3-yl)tetrahydro-1H-oxazolo[3,4-a]pyrazin-3(5H)-one HCl salt] |  |  | best exposure after oral dosing | IC50 [1, 6]: > 300 µM; IC50 ([1]; read-out: Tonic state IC50): > 200 µM; pharmacokinetics (qualitative ranking of the compounds tested) [2]: most favorable pharmacokinetics
17 | Nc1nc(N2CC(O)C2)nnc1-c1cccc(Cl)c1Cl [Compound 129, 3-N-(3-hydroxyazetin-1-yl) lamotrigine] |  |  | best exposure after oral dosing | pharmacokinetics (qualitative ranking of the compounds tested) [2]: most favorable pharmacokinetics
18 | Nc1nc(N2CCN3C(=O)COC[C@H]3C2)nnc1-c1cccc(Cl)c1Cl [Compound 130, (R)-8-(5-amino-6-(2,3-dichlorophenyl)-1,2,4-triazin-3-yl)hexahydropyrazino[2,1-c][1,4]oxazin-4(3H)-one HCl salt] |  |  | best exposure after oral dosing | IC50 [1, 6]: 204 µM; IC50 ([1]; read-out: Tonic state IC50): > 200 µM; pharmacokinetics (qualitative ranking of the compounds tested) [2]: most favorable pharmacokinetics
19 | Nc1nc(N2CC(O)(C(F)(F)F)C2)nnc1-c1cccc(Cl)c1Cl [Compound 165, 3-N-(3-hydroxy-3-trifluoromethyl)azetidinyl lamotrigine] |  |  | best exposure after oral dosing | 
20 | Nc1nc(NCCOCCOCCOC(F)(F)F)nnc1-c1cccc(Cl)c1Cl [Compound 167, 6-(2,3-dichlorophenyl)-N^3-(2-(2-(2-(trifluoromethoxy)ethoxy)ethoxy)ethyl)-1,2,4-triazine-3,5-diamine] | < 50 µM | 108 µM and 91.5 µM and 130 µM |  | MED (AFP model; AFP, +ABT, timepoint 0.5 h, minimum effective dose): 100 mg/kg
21 | CC(CO)Nc1nnc(-c2cccc(Cl)c2Cl)c(N)n1 (centres unmarked) [Compound 182, 2-((5-amino-6-(2,3-dichlorophenyl)-1,2,4-triazin-3-yl)amino)propan-1-ol] |  |  | best exposure after oral dosing | 
22 | COCCOCCOCC(C)Nc1nnc(-c2cccc(Cl)c2Cl)c(N)n1 (centres unmarked) [Compound 188, 6-(2,3-dichlorophenyl)-N3-(1-(2-(2-methoxyethoxy)ethoxy)propan-2-yl)-1,2,4-triazine-3,5-diamine.HCl] |  |  | best exposure after oral dosing | 
23 | Nc1nc(N2CCN(CCO)CC2)nnc1-c1cccc(Cl)c1Cl [Compound 200, 2-(4-(5-amino-6-(2,3-dichlorophenyl)-1,2,4-triazin-3-yl)piperazin-1-yl)ethanol] | 120 µM | > 200 µM | best exposure after oral dosing | 
24 | Nc1nc(N2CCN(CCOCCO)CC2)nnc1-c1cccc(Cl)c1Cl [Compound 201, 2-(2-(4-(5-amino-6-(2,3-dichlorophenyl)-1,2,4-triazin-3-yl)piperazin-1-yl)ethoxy)ethanol] | 202 µM | > 200 µM | best exposure after oral dosing | 
25 | CS(=O)(=O)CCN1CCN(c2nnc(-c3cccc(Cl)c3Cl)c(N)n2)CC1 [Compound 202, 6-(2,3-dichlorophenyl)-3-(4-(2-(methylsulfonyl)ethyl)piperazin-1-yl)-1,2,4-triazin-5-amine] |  |  | best exposure after oral dosing | IC50 [1, 6]: > 300 µM; IC50 ([1]; read-out: Tonic state IC50): > 200 µM
26 | Nc1nc(N2CCN(C[C@H](O)CCl)CC2)nnc1-c1cccc(Cl)c1Cl [Compound 207, (S)-1-(4-(5-amino-6-(2,3-dichlorophenyl)-1,2,4-triazin-3-yl)piperazin-1-yl)-3-chloropropan-2-ol] | 107 µM and 133 µM | > 200 µM | best exposure after oral dosing | ED50 (AFP model; 0.5 h): 476 mg/kg; MED (mg/kg) (AFP model; [5]): 300 (Ph 2) mg/kg
